EC50 and AC50 data for 39 molecules are collected here from ChEMBL document CHEMBL1201862, “PubChem BioAssay data set” (2004).

Activity calls are given as the source filed them. For most assays here, no stated cut-off is given here; in the data, actives have a measured EC50 and inactives only a lower limit.

Test [1] deals with T1, Corticotropin-releasing factor receptor 2/Corticotropin-releasing factor-binding protein (Homo sapiens, UniProt P24387+Q13324).
T1 sequence (Q13324 whole entry): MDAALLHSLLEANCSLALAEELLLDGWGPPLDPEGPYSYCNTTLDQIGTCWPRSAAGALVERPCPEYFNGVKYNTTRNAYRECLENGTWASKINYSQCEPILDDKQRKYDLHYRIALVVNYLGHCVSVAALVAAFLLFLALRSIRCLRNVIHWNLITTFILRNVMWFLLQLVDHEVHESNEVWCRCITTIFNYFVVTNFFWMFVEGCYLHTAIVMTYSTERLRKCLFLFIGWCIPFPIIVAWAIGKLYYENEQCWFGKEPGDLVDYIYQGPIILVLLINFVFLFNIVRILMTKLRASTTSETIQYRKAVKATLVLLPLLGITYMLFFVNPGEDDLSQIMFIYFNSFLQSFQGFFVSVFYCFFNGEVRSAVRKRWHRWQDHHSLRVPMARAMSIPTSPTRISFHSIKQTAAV
T1 sequence (P24387 whole entry): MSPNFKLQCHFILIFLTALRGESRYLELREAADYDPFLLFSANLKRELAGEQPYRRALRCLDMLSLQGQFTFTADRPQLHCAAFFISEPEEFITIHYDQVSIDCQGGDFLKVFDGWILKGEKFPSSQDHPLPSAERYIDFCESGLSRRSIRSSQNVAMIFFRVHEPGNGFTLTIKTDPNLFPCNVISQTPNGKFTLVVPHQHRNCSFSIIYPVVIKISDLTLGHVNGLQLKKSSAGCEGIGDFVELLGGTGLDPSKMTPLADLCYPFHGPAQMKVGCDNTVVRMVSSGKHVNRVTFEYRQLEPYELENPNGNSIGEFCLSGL
In words: activators of CRF receptor 2 with binding protein – uHTS hits, confirmation (AID 602473). It is filed as functional. Conditions: read-out: EC50_Mean.

Test [2] has as its system Streptococcus sp. 'group A'. In words: Streptococcus pyogenes SK(-)GAS viability under kanamycin – luminescence, BacTiterGlo, confirmation, counter-screen for streptokinase expression inhibitor project, dose response (AID 1900). The test is classed as functional, organism-based. (In general: A counterscreen serves to expose hits that act by an unwanted route or on another target.)

Another test deals with T2, Streptokinase A (Streptococcus pyogenes serotype M1, UniProt P10520).
T2 sequence (P10520 whole entry): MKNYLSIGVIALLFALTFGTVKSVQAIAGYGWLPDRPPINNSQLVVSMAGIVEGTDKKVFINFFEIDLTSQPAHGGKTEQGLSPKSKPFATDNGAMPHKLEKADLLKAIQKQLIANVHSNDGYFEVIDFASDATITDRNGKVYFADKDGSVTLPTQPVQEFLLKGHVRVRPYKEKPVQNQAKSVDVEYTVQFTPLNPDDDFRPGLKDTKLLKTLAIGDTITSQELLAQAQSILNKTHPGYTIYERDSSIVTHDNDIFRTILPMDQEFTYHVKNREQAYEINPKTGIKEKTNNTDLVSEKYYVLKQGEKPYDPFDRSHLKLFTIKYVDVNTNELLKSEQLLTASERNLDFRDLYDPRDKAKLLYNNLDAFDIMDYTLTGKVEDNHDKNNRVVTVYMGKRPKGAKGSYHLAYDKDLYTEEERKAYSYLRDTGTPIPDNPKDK
Nature of the test: viability-normalized secreted streptokinase activity reduction – plasminogen activation absorbance, OD405, dose response (AID 1914).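 Further: secreted streptokinase activity via plasminogen activation per viability signal from cell pellet.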 It is filed as functional, Streptococcus pyogenes M1 GAS.

The next test relates to Streptococcus. In words: GAS UMAA2166 growth inhibition – luminescence, BacTiterGlo, counter-screen for streptokinase expression inhibitor project, dose response (AID 1915).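 Further: potency for reduction of bacterial viability or growth.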 It is filed as functional, organism-based.
Test [3] is described as follows: Luminescence Cell-Based Dose Confirmation HTS to Identify Activators of 5'UTR Stem-Loop Driven Alpha-Synuclein mRNA Translation in H4 Neuroglioblastoma Cells. [Related pubchem assays: 1829 (Project Summary), 1814 (Primary HTS)]. The test is classed as functional.
Test [4] in a line: Luminescence Cell-Based Dose Response HTS to Identify Activators of Luciferase Translation or Activity in H4 […] Cells. [Related pubchem assays: 1829 (Project Summary), 1814 (Primary HTS)]. It is filed as functional.
The subject of the next test is H4. Nature of the test: Luminescence Cell-Based Dose Response HTS to Identify Activators of 5'UTR Stem-Loop Driven Prion Protein mRNA Translation in H4 Neuroglioblastoma Cells. [Related pubchem assays: 1829 (Project Summary), 1814 (Primary HTS)]. The test is classed as functional. As to conditions: Homo sapiens.
For the next test, the target named is Cytochrome P450 3A4 (Homo sapiens, UniProt P08684).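 Further: CYP3A4 tested as one member of a cytochrome P450 panel screen.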
Sequence of Cytochrome P450 3A4 (P08684 whole entry): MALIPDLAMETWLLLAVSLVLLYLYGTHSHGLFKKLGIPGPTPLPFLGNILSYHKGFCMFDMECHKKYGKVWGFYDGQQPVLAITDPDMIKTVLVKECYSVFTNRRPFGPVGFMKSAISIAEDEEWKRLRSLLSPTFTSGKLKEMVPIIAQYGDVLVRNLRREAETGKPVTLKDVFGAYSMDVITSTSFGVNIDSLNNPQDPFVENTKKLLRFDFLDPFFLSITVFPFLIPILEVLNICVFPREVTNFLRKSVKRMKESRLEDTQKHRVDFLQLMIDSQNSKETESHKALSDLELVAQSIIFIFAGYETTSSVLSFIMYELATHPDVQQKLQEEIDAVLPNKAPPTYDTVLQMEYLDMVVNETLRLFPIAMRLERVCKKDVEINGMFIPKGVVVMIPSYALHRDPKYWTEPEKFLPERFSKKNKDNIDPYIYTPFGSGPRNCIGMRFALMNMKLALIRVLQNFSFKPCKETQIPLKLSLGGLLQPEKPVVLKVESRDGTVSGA
A further test concerns the target Cytochrome P450 2C9 (Homo sapiens, UniProt P11712).

Sequence of Cytochrome P450 2C9 (P11712 whole entry): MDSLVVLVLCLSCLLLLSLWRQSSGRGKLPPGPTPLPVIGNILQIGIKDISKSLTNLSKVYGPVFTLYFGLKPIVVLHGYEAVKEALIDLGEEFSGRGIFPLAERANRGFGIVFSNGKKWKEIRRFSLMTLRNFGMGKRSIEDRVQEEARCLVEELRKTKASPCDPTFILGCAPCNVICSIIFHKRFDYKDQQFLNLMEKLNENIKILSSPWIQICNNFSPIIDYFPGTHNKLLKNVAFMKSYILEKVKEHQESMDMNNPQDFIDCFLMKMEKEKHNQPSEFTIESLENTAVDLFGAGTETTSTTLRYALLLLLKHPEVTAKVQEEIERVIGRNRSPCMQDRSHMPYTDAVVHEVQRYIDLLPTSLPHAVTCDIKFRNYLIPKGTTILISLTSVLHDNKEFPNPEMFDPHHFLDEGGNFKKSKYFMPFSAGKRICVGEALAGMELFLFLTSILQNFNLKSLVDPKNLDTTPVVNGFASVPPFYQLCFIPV

Regarding `CS(=O)(=O)N(Cc1ccccc1)c1ccc(C(=O)N2CCOCC2)cc1`, the EC50 in test [1] is > 53 µM (inactive).
For `COc1ccccc1C(=O)NNC(=O)C(=O)Nc1cccc(Cl)c1C`, the EC50 in test [2] is 3.78 µM (active); on Streptokinase A, > 150 µM (not active); in the test with Streptococcus, 16 µM (active).
`Cc1cccc(CCN2CCN=C2Nc2ccccc2)c1`: the EC50 in test [1] is 14 µM (active).
`Nc1nonc1-c1noc(CCCN2C(=O)c3ccccc3C2=O)n1`: the EC50 in test [3] was 12.9 µM (active); in test [4], 12.1 µM (active); with H4 it was 15.7 µM (active).
For the molecule `Cc1ccc(OCCn2cnc3ccccc3c2=O)c([N+](=O)[O-])c1`, the EC50 in [3] is 0.247 µM (active); in [4] it was 2.44 µM (active).
For the molecule `COc1ccc(-c2c/c(=N/c3c(C)n(C)n(-c4ccccc4)c3=O)c3ccccc3o2)cc1`, the EC50 in test [3] was 11.1 µM (active); in [4], 11.1 µM (active); in the test with H4, 2.02 µM (active).
Consider `Cc1ncc(CC(=O)n2cc(C(=O)c3cc(Cl)ccc3O)cn2)s1`, for which the figures for the EC50 (in [3]; in test [4]; in the test on H4) were 16.5 µM (active), > 120 µM (not active) and 40.2 µM (active), respectively.
A word on the AC50: it is the concentration giving half of the maximal activity seen. Turning to `COc1ccc(N=C(S)Nc2ncccc2C)c(OC)c1`, the AC50 on Cytochrome P450 3A4 is 39.8 µM (inconclusive); at Cytochrome P450 2C9 it was 20 µM (inconclusive).
In the case of `COc1cc(C=C(C#N)C#N)cc(O)c1O`, the AC50 at Cytochrome P450 3A4 is 10 µM (inconclusive).
`CC(=N)/C(C#N)=C(/O)CSc1nnc(Nc2cccc(C)c2)s1`: the EC50 in [3] was 10.1 µM (active); in test [4], 45.1 µM (active); in the test with H4 it was > 120 µM (not active).
`CC1CNC(=Nc2cccc3ccccc23)S1` (stereo not drawn): the AC50 on Cytochrome P450 3A4 was 15.8 µM (inconclusive); on Cytochrome P450 2C9 it was 14.1 µM (inconclusive).
As to `C/C(=N\NS(=O)(=O)c1ccc(C)cc1)c1ccc(C)o1`, the EC50 (in test [2]; at Streptokinase A; in the test with Streptococcus) was > 150 µM (not active) throughout.
Take `COc1cccc(-c2coc3cc4oc(=O)c(CCC(=O)O)c(C)c4cc23)c1`: the EC50 is 5.51 µM (active) in test [2], > 150 µM (not active) on Streptokinase A and 48.5 µM (active) with Streptococcus.
With `CC1=C(C#N)C(Nc2ccc(Cl)cn2)(C(F)(F)F)C(=O)N1` (stereo not drawn), at Cytochrome P450 3A4, the AC50 is 15.8 µM (inconclusive).
Take `N=C1/C(=C\c2ccc(OC(=O)c3ccccc3Cl)cc2)C(=O)N=C2SC(N3CCOCC3)=NN12`: the EC50 in test [2] is 37.8 µM (active); at Streptokinase A it was > 150 µM (not active); in the test with Streptococcus, > 150 µM (not active).
As to `CCOC(=O)Cc1cc(-c2ccc(OC)cc2)nc2ccc3ccccc3c12`, the EC50 in [3] is 9.64 µM (active); in test [4], 12.6 µM (active); with H4 it was 15.6 µM (active).
Turning to `O=C(Nc1ccc2c(c1)OCO2)N1CCN(c2ccccc2)CC1`, the EC50 in test [3] was > 120 µM (not active); in [4], 16.2 µM (active); in the test on H4, 10.3 µM (active).
Consider `CC1CCN(c2ccccc2NC(=O)c2ccc(Br)o2)CC1`, for which the results for the EC50 (in [2]; at Streptokinase A; with Streptococcus) were 5.4 µM (active), 43.6 µM (active) and 10.3 µM (active), respectively.
With `O=C(O)CCSc1ccc([N+](=O)[O-])cc1[N+](=O)[O-]`, the EC50 on Streptokinase A and in the test on Streptococcus was > 150 µM (not active) each time.
Consider `S=c1[nH]cnc2scc(-c3ccc(Cl)cc3)c12`, for which the EC50 at Streptokinase A is > 150 µM (not active).
For the molecule `COc1cc(/C=C/C(=O)OCC(=O)c2c(N)n(C)c(=O)n(C)c2=O)ccc1OCC#N`, the results for the EC50 (in test [2]; in the test with Streptococcus) were 7.23 µM (active) and 4.1 µM (active), respectively.
In the case of `Cc1ccc(CN2C(=O)N/C(=C/c3cc(C)n(-c4ccccn4)c3C)C2=O)cc1`, the EC50 in test [3] is 11.9 µM (active); in [4], 7.26 µM (active); with H4, > 120 µM (not active).
For the molecule `O=C(CCOc1ccccc1)Nc1ccccc1`, the AC50 at Cytochrome P450 3A4 was 22.4 µM (inconclusive); at Cytochrome P450 2C9, 1 µM (inconclusive).
For the molecule `CCN(CC)c1nc(C=Cc2ccc(N(C)C)cc2)c2nccnc2n1`, the EC50 in [1] is 2.56 µM (active).
For `Nn1c(CSc2ccccn2)nc2ccccc2c1=O`, the EC50 was 42.9 µM (active) in [3], 35.2 µM (active) in [4] and 23.3 µM (active) in the test with H4.
In the case of `Cc1nn(C(C)C(=O)N2CCc3ccccc32)c(C)c1[N+](=O)[O-]` (stereo not drawn), at Cytochrome P450 3A4, the AC50 was 17.8 µM (inconclusive).
Consider `COC(=O)c1ccc(-c2ccc(/C=N/N3C(=O)C4C5C=CC(CC5)C4C3=O)o2)cc1` (stereo not drawn), for which the values for the EC50 (in [3]; in test [4]; in the test with H4) were 6.71 µM (active), 19.5 µM (active) and 18.9 µM (active), respectively.
Regarding `CC(c1ccon1)N(C)Cc1c[nH]nc1-c1ccc(-c2ccccc2)cc1` (stereo not drawn), the EC50 is > 120 µM (not active) in [3], 30.5 µM (active) in [4] and > 120 µM (not active) in the test on H4.
For `O=C(Nc1ccc2c[nH]nc2c1)c1ccc(Cl)c(S(=O)(=O)N2CCOCC2)c1`, the EC50 in test [3] was 6.56 µM (active); in test [4], 42.2 µM (active); in the test on H4, 27.6 µM (active).
Regarding `CC(C)CC(=O)Nc1ccc(C(=O)COC(=O)Cc2n[nH]c(=O)c3ccccc23)cc1`, the EC50 in [1] is 12.4 µM (active).
In the case of `Sc1ncnc2scc(-c3ccc(Cl)cc3)c12`, the values for the EC50 (in test [2]; with Streptococcus) were 13.1 µM (active) and 47.4 µM (active), respectively.
Regarding `CCc1nnc(NC(=O)/C=C/c2ccco2)s1`, the EC50 in [3] is 13.7 µM (active); in [4], 54.5 µM (active); in the test with H4, 6.44 µM (active).
The corresponding values for `COC(=O)c1ccc(N2OC3(C)C=CC2CC3)cc1` (stereo not drawn) are 9.96 µM (active), 5.16 µM (active) and 13.5 µM (active).
The corresponding values for `CCOC(=O)C1CCN(c2nnc(N3CCCC3=O)s2)CC1` are 3.42 µM (active), 6.58 µM (active) and 33 µM (active).
Regarding `COc1ccc(C(=O)C2=C(O)C(=O)N(c3cc(C)on3)C2c2ccc(OC)c(OC)c2)cc1OC` (stereo not drawn), at Cytochrome P450 3A4, the half-maximal activity concentration (AC50) is 22.4 µM (inconclusive).
Still for that read-out and setting: the result for `O=C(O)c1cc2c(cc1S(=O)(=O)O)[C@H]1[C@@H](C3[C@H]2[C@@]2(Cl)C(Cl)=C(Cl)[C@@]3(Cl)C2(Cl)Cl)[C@]2(Cl)C(Cl)=C(Cl)[C@]1(Cl)C2(Cl)Cl` (stereo partly drawn) reads 3.16 µM (inconclusive).
As for `O=C(COc1ccc(F)cc1)N(Cc1cccs1)C1CCS(=O)(=O)C1` (stereo not drawn), in test [1], the EC50 is > 53 µM (inactive).
For the molecule `CC1(C)CC(=O)c2cc(NC=C(C(=O)c3ccccc3)C(=O)c3ccccc3)c(=O)oc2C1`, the EC50 in [3] was 15.6 µM (active); in [4] it was > 60 µM (not active); in the test with H4 it was > 120 µM (not active).
The corresponding values for `COc1ccc2nc(N3CCN(C(=O)C4COc5ccccc5O4)CC3)sc2c1` (stereo not drawn) are 4.45 µM (active), 30.7 µM (active) and 12.8 µM (active).
